Results published in US20030143645A1, “Quinone reductase 2 and aldehyde dehydrogenase as therapeutic targets” (priority 2001, published 2003).

What was measured:
[1] = target: T1, QR2 (Homo sapiens, UniProt P16083); test: hQR2 activity assay, enzyme purified from human RBC (Example 1); assay type: biochemical; set-up: Pure hALDH was eluted with 5 mM NADH and pure hQR2 with 5 mM NMeN; tissue Valley Biomedical (blood); host or cells: human red blood cells; conditions: purified hQR2 from human RBC; menadione substrate; read-out: Kd(app)
T1 sequence (P16083 1-231): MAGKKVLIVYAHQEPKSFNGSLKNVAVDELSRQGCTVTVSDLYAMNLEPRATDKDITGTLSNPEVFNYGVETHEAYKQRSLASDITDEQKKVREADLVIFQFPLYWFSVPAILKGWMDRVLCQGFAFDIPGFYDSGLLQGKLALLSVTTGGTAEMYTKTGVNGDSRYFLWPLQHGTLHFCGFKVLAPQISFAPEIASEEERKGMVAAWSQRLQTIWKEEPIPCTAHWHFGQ
Protocol: ATP-affinity array chromatography. In whole mouse experiments, the animal (except for its tail, feet, skin and intestines) was frozen in liquid N2 and blended in buffer A containing 50 mM Hepes, pH 7.5, 50 mM NaCl, 10 mM MgCl2, 0.1% NONIDET- P40, 1 mM dithiothreitol, 1 μg/ml leupeptin, 100 μg/ml pefabloc and 10 μg/ml aprotinin. Mouse lysate was clarified by centrifugation for 1 hr at 100,000×g. For infected and non-infected RBC's˜1.5×10^9 cells were mixed with an equal volume of 2×buffer A, rocked for 30 min at 4° C., and clarified by centrifugation for 1 hr at 100,000×g. Supernatants were dialyzed overnight against 50 mM Hepes, pH 7.5, 50 mM NaCl, 10 mM MgCl2 and 1 mM dithiothreitol. […] Lysates were centrifuged twice at 125,000×g for 1 hr at 4° C. […] Pure hALDH was eluted with 5 mM NADH and pure hQR2 with 5 mM NMeN. The eluants were dialyzed overnight at 4° C. against 25 mM Tris pH 8.0 and 1 mM DTT. hALDHl was assayed as described in Table 2. Purified hQR2 was assayed at 22° C. in 100 μM N-methyldihydronicotinamide, 30 μM menadione, 0.1% Triton X-100, 50 mM Tris pH 8.5, 100 μM dicoumarol (unless stated otherwise).
For QR2 Kd apparent values determined using the expression [formula]
The Kd was determined as [formula]
Where Ao=rate in the absence of drug; Aapp=rate+drug; [M]=concentration of menadione.

[2] = target: T2, ALDH1 (Homo sapiens, UniProt P00352); test: hALDH1 HPLC-based activity assay (Example 1); assay type: biochemical
T2 construct: Purification of native ALDH1, QR2 and QR1; RBC extract was prepared as described above and applied to PQ-Sepharose; tissue Valley Biomedical (blood); host or cells: human red blood cells
T2 sequence (P00352 1-501): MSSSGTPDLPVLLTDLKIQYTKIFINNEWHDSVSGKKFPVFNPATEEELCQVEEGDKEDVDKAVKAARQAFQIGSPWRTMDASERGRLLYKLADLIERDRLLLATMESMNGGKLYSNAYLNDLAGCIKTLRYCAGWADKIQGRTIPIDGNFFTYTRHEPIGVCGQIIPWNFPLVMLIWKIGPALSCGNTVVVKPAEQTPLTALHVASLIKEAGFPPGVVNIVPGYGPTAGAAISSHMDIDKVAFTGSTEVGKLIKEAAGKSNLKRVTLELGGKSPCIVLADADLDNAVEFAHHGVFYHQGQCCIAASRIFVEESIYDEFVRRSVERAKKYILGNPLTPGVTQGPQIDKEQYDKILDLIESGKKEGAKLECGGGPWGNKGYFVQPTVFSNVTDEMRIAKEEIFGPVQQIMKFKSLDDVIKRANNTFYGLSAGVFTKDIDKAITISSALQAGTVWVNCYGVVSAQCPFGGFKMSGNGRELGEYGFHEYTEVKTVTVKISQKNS
Protocol: ATP-affinity array chromatography. In whole mouse experiments, the animal (except for its tail, feet, skin and intestines) was frozen in liquid N2 and blended in buffer A containing 50 mM Hepes, pH 7.5, 50 mM NaCl, 10 mM MgCl2, 0.1% NONIDET- P40, 1 mM dithiothreitol, 1 μg/ml leupeptin, 100 μg/ml pefabloc and 10 μg/ml aprotinin. Mouse lysate was clarified by centrifugation for 1 hr at 100,000×g. For infected and non-infected RBC's˜1.5×10^9 cells were mixed with an equal volume of 2×buffer A, rocked for 30 min at 4° C., and clarified by centrifugation for 1 hr at 100,000×g. Supernatants were dialyzed overnight against 50 mM Hepes, pH 7.5, 50 mM NaCl, 10 mM MgCl2 and 1 mM dithiothreitol. […] Proteins were resolved by 12% SDS-PAGE and visualized by staining either with Coomassie brilliant Blue R-250 or silver nitrate. Alternatively, proteins were transferred to membrane GeneMate (Kaysville, Utah) in transfer buffer (25 mM Tris, 200 mM glycine, 20% methanol, and 0.01% SDS) for mixed peptide sequencing (Damer et al, J. Biol. Chem. 273:24396 (1998)). hALDH 1 and hQR2 purification and activity assays. Fresh human red blood cells (RBC) were obtained from Valley Biomedical, washed twice with PBS, and lysed in buffer B (0.1% Triton X, 50 mM Tris pH 7.5, 125 mM NaCl, 1 μg/mL aprotonin, 1 μg/mL pepstatin and 10 μg/mL PEFABLOC). […]
Values for hALDH1 were determined by HPLC assay. […]

Kd [1]: 24 µM
ALDH activity ([2]; 0.5 mM CQ, ALDH alone 48.42 ± 9.3 pmol): 26.62 ± 6.1 pmol
inhibition of hALDH1 activity ([2]; in the presence of physiological [NADH]): relatively weak inhibitor
SMILES: CCN(CC)CCCC(C)Nc1ccnc2cc(Cl)ccc12 (stereo not drawn) [CQ, chloroquine]
